Results as given in ChEMBL document CHEMBL5291721, “A preclinical secondary pharmacology resource illuminates target-adverse drug reaction associations of marketed drugs” (Nat Commun, 2023).

Legend:
[1] = biological target: Vascular endothelial growth factor receptor 2 (Homo sapiens, UniProt P35968); assay type: functional
[2] = biological target: Sodium-dependent noradrenaline transporter (Homo sapiens, UniProt P23975)
[3] = biological target: T1, 5-hydroxytryptamine receptor 1A (Homo sapiens, UniProt P08908)
T1 sequence (P08908 whole entry): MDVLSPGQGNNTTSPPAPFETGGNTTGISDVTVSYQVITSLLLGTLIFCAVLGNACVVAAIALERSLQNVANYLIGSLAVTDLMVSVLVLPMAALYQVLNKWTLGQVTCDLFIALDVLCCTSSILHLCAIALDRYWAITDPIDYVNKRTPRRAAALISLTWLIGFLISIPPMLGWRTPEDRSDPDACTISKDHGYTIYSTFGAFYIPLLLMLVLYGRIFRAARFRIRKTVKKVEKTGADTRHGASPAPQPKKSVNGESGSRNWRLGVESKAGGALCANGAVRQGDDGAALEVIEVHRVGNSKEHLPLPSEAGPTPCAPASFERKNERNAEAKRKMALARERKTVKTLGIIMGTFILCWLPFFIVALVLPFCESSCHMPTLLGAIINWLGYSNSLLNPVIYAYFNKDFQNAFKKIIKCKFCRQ

[4] = biological target: T2, Alpha-2A adrenergic receptor (Homo sapiens, UniProt P08913)
T2 sequence (P08913 whole entry): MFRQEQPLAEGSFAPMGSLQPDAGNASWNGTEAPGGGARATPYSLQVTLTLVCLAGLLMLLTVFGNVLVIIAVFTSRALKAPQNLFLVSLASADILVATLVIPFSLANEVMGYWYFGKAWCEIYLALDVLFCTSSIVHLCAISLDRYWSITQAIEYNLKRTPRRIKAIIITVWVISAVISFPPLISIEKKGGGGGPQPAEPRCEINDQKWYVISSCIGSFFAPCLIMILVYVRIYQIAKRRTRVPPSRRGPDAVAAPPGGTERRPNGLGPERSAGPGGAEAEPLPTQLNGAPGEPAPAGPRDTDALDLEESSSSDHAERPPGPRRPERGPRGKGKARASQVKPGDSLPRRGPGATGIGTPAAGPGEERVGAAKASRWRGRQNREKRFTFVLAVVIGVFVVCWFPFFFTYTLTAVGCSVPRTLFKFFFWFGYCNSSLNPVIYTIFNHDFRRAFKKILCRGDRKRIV

[5] = biological target: 5-hydroxytryptamine receptor 2B (Homo sapiens, UniProt P41595); assay type: functional, cell-based
[6] = biological target: T3, Muscarinic acetylcholine receptor M2 (Homo sapiens, UniProt P08172)
T3 sequence (P08172 whole entry): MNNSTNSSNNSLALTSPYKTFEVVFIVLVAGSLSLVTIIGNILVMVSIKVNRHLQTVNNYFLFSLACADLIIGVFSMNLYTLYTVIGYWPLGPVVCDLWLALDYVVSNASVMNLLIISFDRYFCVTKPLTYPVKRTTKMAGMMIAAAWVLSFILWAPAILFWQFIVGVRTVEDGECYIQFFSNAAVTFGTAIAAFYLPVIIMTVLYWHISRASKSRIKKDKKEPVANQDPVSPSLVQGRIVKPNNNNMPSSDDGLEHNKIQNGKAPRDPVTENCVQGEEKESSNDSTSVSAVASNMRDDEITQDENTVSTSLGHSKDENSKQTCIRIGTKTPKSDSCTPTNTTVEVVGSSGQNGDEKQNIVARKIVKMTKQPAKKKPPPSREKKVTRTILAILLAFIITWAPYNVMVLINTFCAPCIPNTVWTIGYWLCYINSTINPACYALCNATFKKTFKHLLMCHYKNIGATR

Histamine H3 receptor = Histamine H3 receptor (Homo sapiens, UniProt Q9Y5N1)
Thromboxane A2 receptor = biological target: T4, Thromboxane A2 receptor (Homo sapiens, UniProt P21731); assay type: functional, cell-based
T4 sequence (P21731 whole entry): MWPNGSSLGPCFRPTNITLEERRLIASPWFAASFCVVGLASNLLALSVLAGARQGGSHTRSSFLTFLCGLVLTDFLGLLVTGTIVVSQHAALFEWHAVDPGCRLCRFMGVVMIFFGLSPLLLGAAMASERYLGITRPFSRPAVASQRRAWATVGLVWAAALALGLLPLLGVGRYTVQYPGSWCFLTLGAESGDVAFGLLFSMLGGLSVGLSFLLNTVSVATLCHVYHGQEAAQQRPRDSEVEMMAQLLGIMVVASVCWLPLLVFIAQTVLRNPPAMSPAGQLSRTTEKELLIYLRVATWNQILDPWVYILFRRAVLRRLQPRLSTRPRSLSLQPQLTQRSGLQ

Histamine H2 receptor = Histamine H2 receptor (Homo sapiens, UniProt P25021); assay type: functional, cell-based
Cannabinoid receptor 1 = Cannabinoid receptor 1 (Homo sapiens, UniProt P21554); assay type: functional, cell-based
[7] = biological target: Kappa-type opioid receptor (Homo sapiens, UniProt P41145)
[8] = biological target: T5, Alpha-1A adrenergic receptor (Homo sapiens, UniProt P35348); assay type: functional, cell-based
T5 sequence (P35348 whole entry): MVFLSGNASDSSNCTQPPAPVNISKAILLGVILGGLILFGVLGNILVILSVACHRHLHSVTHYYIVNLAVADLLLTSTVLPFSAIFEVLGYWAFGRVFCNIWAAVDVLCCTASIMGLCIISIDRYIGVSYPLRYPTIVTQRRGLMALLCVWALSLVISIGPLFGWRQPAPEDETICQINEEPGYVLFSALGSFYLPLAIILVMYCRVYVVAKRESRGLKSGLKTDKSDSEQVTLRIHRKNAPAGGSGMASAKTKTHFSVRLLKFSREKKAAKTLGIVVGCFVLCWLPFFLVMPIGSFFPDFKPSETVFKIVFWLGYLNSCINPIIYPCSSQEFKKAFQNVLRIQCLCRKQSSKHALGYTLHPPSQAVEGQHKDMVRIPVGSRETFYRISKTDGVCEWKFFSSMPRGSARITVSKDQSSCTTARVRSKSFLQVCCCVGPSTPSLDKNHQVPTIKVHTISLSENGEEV

[9] = biological target: Neuronal acetylcholine receptor subunit alpha-4 (Homo sapiens, UniProt P43681)
[10] = biological target: T3, Muscarinic acetylcholine receptor M2; assay type: functional, cell-based
[11] = biological target: Gamma-aminobutyric acid receptor subunit alpha-1 (Rattus norvegicus, UniProt P62813)
D(3) dopamine receptor = D(3) dopamine receptor (Homo sapiens, UniProt P35462)
Further: assay procedure not described here.

Sequence of Sodium-dependent noradrenaline transporter (P23975 whole entry): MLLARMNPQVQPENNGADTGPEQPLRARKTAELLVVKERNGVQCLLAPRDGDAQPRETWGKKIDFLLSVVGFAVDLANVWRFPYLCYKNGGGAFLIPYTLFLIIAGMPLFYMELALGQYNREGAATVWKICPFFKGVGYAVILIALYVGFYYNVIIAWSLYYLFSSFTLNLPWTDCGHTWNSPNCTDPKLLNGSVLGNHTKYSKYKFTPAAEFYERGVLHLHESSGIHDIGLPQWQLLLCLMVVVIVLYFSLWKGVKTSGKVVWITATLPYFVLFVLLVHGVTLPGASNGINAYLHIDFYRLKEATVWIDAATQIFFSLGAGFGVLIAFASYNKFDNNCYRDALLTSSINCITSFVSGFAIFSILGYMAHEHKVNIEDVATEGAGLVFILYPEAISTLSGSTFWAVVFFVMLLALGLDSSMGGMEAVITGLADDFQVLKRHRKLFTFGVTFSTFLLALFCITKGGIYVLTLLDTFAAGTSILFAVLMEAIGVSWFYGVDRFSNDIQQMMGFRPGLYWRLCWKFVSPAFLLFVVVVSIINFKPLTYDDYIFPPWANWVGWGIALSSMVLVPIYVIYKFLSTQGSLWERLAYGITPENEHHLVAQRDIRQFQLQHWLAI
Sequence of D(3) dopamine receptor (P35462 whole entry): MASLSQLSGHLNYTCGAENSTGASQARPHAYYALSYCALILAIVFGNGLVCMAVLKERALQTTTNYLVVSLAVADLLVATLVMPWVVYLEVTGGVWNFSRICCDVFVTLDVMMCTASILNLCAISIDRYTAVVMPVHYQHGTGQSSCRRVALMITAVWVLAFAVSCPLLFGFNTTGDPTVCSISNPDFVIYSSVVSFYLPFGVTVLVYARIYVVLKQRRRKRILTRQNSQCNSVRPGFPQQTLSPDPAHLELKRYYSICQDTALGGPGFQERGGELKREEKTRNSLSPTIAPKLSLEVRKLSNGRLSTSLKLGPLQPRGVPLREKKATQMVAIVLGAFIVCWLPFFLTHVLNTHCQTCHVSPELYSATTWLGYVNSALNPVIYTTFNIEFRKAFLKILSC
Sequence of Kappa-type opioid receptor (P41145 whole entry): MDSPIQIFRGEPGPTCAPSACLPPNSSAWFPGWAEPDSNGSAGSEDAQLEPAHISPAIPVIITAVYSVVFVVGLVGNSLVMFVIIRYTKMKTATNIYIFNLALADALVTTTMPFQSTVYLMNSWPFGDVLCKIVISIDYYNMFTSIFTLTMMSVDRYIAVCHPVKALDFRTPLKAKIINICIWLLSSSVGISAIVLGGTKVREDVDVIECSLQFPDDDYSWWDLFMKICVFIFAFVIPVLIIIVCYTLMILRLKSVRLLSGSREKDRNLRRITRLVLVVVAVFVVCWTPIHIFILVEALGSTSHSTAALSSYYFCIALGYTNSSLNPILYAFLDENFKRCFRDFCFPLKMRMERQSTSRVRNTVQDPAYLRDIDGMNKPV
Sequence of Histamine H3 receptor (Q9Y5N1 whole entry): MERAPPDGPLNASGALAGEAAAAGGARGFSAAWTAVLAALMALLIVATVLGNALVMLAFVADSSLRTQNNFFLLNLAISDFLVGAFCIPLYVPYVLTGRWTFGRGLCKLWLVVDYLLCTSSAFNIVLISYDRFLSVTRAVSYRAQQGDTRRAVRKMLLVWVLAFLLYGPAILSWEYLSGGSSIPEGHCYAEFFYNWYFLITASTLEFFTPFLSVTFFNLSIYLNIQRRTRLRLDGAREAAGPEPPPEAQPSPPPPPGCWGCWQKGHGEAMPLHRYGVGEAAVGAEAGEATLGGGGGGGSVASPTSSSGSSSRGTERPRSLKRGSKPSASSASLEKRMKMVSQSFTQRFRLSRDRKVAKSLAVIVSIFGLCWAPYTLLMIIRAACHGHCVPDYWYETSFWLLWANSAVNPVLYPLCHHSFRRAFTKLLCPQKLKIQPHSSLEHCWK
Sequence of Cannabinoid receptor 1 (P21554 whole entry): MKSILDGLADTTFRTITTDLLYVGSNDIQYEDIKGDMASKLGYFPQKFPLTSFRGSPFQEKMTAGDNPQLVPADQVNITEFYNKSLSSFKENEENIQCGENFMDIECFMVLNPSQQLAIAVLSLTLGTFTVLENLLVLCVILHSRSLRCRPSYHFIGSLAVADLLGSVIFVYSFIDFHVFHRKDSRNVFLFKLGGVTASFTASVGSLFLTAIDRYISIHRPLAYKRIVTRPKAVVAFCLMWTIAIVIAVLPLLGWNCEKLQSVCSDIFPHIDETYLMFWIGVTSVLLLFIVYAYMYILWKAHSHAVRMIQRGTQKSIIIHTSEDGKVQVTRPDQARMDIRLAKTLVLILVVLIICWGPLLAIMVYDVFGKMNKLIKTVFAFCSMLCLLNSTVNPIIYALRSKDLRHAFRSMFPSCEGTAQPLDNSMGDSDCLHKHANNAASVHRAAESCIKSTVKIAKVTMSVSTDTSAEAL
Sequence of Neuronal acetylcholine receptor subunit alpha-4 (P43681 whole entry): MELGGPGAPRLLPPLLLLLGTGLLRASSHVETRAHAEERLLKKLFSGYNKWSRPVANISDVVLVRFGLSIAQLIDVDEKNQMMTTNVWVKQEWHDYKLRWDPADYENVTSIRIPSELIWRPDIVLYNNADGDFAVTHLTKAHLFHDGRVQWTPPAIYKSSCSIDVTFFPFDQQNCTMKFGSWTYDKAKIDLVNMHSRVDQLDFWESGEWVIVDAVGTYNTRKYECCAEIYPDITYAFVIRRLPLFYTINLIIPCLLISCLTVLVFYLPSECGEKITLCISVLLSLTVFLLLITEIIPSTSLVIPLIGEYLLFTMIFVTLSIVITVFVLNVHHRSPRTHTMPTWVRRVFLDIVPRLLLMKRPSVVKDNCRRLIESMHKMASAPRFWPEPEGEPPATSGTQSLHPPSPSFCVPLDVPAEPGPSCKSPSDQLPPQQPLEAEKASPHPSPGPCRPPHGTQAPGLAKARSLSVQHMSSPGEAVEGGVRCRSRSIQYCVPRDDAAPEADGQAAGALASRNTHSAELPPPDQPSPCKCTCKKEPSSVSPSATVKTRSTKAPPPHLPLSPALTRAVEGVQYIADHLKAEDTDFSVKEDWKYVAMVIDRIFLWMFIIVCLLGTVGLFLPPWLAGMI
Sequence of Vascular endothelial growth factor receptor 2 (P35968 whole entry): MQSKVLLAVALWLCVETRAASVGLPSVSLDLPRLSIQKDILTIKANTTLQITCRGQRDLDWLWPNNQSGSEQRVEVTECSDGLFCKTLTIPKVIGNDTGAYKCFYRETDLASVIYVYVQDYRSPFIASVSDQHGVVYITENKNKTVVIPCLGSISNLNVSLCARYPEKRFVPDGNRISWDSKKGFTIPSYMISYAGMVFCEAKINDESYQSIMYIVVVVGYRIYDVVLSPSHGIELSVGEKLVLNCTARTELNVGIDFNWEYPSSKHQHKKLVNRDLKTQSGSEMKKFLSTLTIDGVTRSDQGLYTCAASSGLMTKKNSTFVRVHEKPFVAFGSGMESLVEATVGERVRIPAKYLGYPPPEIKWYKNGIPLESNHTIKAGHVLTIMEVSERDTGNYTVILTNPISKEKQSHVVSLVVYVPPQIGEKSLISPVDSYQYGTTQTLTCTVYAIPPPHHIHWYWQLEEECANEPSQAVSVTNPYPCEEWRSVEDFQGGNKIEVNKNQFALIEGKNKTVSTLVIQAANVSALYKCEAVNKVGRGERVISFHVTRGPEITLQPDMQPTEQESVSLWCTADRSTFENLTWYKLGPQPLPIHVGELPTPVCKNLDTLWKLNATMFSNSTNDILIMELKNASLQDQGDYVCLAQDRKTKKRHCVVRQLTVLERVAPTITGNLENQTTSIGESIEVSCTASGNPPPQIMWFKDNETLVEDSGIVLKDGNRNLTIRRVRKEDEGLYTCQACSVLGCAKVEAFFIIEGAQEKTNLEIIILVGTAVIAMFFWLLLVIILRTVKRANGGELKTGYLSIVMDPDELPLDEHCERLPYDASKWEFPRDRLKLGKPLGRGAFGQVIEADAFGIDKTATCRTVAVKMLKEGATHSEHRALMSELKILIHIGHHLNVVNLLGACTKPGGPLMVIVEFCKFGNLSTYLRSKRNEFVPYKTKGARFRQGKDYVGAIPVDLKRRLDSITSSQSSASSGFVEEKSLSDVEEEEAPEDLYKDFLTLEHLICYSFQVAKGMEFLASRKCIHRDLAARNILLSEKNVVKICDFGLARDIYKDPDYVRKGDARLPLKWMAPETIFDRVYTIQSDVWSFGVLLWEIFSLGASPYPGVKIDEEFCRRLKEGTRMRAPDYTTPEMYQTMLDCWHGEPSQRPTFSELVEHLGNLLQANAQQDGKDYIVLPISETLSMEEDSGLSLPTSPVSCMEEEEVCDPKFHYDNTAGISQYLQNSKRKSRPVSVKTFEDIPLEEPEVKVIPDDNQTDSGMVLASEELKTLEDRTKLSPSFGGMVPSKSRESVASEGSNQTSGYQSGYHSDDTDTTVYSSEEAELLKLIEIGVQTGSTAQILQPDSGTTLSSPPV
Sequence of 5-hydroxytryptamine receptor 2B (P41595 whole entry): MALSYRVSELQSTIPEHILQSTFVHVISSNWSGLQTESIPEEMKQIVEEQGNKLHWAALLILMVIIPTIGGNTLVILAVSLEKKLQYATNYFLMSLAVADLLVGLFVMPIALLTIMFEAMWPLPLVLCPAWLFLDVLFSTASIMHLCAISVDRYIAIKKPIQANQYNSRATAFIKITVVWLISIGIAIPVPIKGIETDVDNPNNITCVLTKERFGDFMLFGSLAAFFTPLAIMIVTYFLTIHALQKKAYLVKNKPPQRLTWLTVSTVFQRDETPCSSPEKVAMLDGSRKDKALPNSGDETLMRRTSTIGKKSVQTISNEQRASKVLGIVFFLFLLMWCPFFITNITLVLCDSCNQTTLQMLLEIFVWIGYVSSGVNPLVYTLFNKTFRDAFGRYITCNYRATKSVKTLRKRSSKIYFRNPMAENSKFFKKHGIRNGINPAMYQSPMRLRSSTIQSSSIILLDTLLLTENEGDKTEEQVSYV

Row | Structure (SMILES) | AC50 [1] [µM] | AC50 [2] [µM] | AC50 [3] [µM] | AC50 [4] [µM] | AC50 [5] [µM] | AC50 [6] [µM] | AC50 (Histamine H3 receptor) [µM] | AC50 (Thromboxane A2 receptor) [µM] | AC50 (Histamine H2 receptor) [µM] | AC50 (Cannabinoid receptor 1) [µM] | AC50 [7] [µM] | AC50 [8] [µM] | AC50 [9] [µM] | AC50 [10] [µM] | AC50 [11] [µM] | AC50 (D(3) dopamine receptor) [µM]
1 | O=C(O)c1ccccc1 [BENZOIC ACID] | > 30 | > 30 | > 30 | > 30 | > 30 | > 30 | > 30 | > 30 | – | – | – | – | – | – | – | –
2 | CCCNC(=O)NS(=O)(=O)c1ccc(Cl)cc1 [CHLORPROPAMIDE] | – | – | – | – | – | – | – | – | > 10 | > 30 | > 10 | > 30 | > 10 | > 10 | > 10 | > 30
3 | CC(C(=O)O)c1cccc(Oc2ccccc2)c1 (stereo unspecified) [FENOPROFEN] | > 30 | > 30 | > 30 | > 30 | > 30 | > 30 | > 30 | > 30 | – | – | – | – | – | – | – | –
4 | CC1(C)O[C@@H]2C[C@H]3[C@@H]4C[C@H](F)C5=CC(=O)C=C[C@]5(C)[C@@]4(F)[C@@H](O)C[C@]3(C)[C@]2(C(=O)CO)O1 [FLUOCINOLONE ACETONIDE] | > 30 | > 30 | > 30 | > 30 | > 30 | > 30 | > 30 | > 30 | – | – | – | – | – | – | – | –
5 | O=C(O)P(=O)(O)O [FOSCARNET] | > 30 | > 30 | > 30 | > 30 | > 30 | > 30 | > 30 | > 30 | – | – | – | – | – | – | – | –
6 | N=C(N)N/N=C/c1c(Cl)cccc1Cl [GUANABENZ] | > 30 | 8.81 | 0.604 | – | > 30 | > 30 | > 30 | 22.2 | – | – | – | – | – | – | – | –
7 | COc1cc(C(C)=O)ccc1OCCCN1CCC(c2noc3cc(F)ccc23)CC1 [ILOPERIDONE] | – | 1.19 | 0.11 | 0.06 | > 30 | 2.18 | > 30 | > 10 | – | > 30 | > 10 | 0.0092 | 2 | 8.3 | – | 0.0373
8 | CN1Cc2c(N)cccc2C(c2ccccc2)C1 (stereo unspecified) [NOMIFENSINE] | – | – | – | – | – | – | – | – | > 30 | > 30 | > 30 | 13 | > 30 | > 30 | > 30 | > 30
9 | COc1ccc2[nH]c([S+]([O-])Cc3ncc(C)c(OC)c3C)nc2c1 (stereo unspecified) [OMEPRAZOLE] | > 30 | > 30 | > 30 | > 30 | > 30 | 15.7 | > 30 | > 30 | – | – | – | – | – | – | – | –
